{
  "source": "paper PMC4585259",
  "about": "(Frontiers in Pharmacology, 2015)",
  "biological_target": "T1, rNav1.2 sodium channels (Rattus norvegicus, UniProt P04775)",
  "T1 construct": "host or cells: HEK-293",
  "T1 sequence (P04775 whole entry)": "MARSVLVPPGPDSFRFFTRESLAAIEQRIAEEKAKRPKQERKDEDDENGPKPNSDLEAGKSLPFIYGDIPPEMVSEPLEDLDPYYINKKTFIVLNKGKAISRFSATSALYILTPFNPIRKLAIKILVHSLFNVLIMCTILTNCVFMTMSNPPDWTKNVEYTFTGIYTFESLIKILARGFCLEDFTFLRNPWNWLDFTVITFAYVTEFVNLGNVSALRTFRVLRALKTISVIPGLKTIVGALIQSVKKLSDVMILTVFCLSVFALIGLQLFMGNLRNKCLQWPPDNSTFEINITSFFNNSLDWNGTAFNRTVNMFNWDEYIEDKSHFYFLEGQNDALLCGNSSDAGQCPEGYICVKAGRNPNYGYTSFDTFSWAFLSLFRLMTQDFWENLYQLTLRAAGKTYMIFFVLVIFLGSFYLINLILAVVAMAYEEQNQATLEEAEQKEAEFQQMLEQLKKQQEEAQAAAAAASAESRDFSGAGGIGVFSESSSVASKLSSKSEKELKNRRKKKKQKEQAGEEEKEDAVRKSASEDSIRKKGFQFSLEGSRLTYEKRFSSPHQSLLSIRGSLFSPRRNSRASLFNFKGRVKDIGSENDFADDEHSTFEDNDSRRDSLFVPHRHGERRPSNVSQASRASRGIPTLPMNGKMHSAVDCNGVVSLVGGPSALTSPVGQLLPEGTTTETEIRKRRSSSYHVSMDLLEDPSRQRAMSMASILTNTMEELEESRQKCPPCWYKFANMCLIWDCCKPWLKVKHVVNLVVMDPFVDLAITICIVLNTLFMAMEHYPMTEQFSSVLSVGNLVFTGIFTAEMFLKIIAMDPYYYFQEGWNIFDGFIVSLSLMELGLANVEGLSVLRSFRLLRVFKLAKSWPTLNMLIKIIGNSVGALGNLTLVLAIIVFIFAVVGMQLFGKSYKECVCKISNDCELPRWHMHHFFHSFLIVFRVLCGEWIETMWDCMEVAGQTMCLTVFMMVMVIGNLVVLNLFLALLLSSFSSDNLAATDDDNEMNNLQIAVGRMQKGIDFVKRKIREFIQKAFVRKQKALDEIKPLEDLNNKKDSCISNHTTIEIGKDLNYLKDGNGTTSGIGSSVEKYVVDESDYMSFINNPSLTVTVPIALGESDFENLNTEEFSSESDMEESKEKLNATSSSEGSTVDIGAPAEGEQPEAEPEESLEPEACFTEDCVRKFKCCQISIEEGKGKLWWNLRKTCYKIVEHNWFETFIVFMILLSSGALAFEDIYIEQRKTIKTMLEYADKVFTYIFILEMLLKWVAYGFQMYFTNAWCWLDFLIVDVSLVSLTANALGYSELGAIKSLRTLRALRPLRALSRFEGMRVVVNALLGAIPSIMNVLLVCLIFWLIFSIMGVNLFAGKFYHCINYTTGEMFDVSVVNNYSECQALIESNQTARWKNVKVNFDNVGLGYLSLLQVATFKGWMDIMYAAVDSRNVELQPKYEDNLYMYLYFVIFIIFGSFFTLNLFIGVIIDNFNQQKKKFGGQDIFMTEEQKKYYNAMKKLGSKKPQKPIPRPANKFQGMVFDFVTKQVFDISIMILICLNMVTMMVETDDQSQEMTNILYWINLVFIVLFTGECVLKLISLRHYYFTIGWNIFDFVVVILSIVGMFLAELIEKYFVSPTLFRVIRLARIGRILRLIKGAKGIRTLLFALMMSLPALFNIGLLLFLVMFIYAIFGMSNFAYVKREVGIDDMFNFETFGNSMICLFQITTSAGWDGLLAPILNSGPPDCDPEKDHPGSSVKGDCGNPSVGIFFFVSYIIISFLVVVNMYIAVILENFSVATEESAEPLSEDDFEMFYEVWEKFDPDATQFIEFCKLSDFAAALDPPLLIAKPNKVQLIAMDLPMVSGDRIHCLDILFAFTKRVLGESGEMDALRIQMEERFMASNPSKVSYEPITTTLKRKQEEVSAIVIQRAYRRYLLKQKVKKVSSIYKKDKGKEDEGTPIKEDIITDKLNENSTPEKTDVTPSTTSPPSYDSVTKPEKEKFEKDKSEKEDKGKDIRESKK",
  "assay": "QPatch automated patch clamp, inhibition of sodium currents evoked by 5 Hz trains at three extracellular pH values",
  "type": "cell-based",
  "conditions": "for class of pH-dependence pattern (cluster analysis): Ward's method on 18 variables of affinity, reversibility, onset",
  "experimental": "HEK-293 cells stably expressing rNav1.2 sodium channels were obtained from NeuroSearch (Ballerup, Denmark). The cells were grown in Dulbecco's modified Eagle medium supplemented with 10% FBS. Prior to use, the cells were trypsinized and subsequently kept in suspension in the QPatch cell storage facility in CHO-S- SFM-II medium.\nComposition of the extracellular solution was: (in mM): 140 NaCl, 3 KCl, 1 CaCl2 1 MgCl2, 0.1 CdCl2, 20 TEA-Cl, 5 HEPES, adjusted to pH 7.3, Osmolality: 320 mOsm. […] Drugs were synthesized in Gedeon Richter Plc. […] The full list of drugs, with their three-letter codes, concentration, as well as their main therapeutic indication and main mechanism of action are shown in Table 1. […] The choice of concentrations used in this study may seem unusually high.\nData were sampled at a frequency of 25 kHz and filtered at 5 kHz. Junction potential was calculated to be −11 mV and was corrected for. […] Cells having membrane resistance < 500 MOhm, series resistance > 9 MOhm, or capacitance > 22 pF were excluded from analysis. The experimental protocol was also identical to the one used in our previous study: sodium channels were activated by 5 Hz trains of 5 depolarizations (−90 to −10 mV) repeated in every 20 s. In this study, however, the same control–drug-application–washout sequence was repeated four times: at neutral, acidic, alkalic, and again neutral pH. The peak amplitudes of sodium currents throughout the whole experiment are shown plotted against time in Figure 1 and Supplementary Figure 1.\nInitial analysis, including subtraction of leak and capacitive artifacts, as well as peak detection were done in the QPatch software. […] All experiments were normalized to the amplitude of the current evoked by the first depolarization of the last train under control conditions. […] For all four drug applications in an experiment, apparent affinity, onset and offset time constants as well as reversibility values were calculated. […] (This method is equivalent to applying the Lineweaver-Burk plot method using a single concentration.) Reversibility values were calculated from control (c), inhibited (i), and wash-out (w) amplitudes as follows: Reversibility = (w-i)/(c-i). Reversibility values should not be regarded as experimental platform-independent properties of compounds. […] However, reversibility values are a valuable source of information regarding physicochemical differences between individual drugs, or between effects of the same drug under different extracellular pH conditions. Onset and offset time constants were determined by single exponential fitting to individual experiments. For neutral pH numerical data were given as the average of the data from the first and the last drug applications. Thin black lines on Figure 1 and Supplemental Figure 1 show the average of five fitted exponentials, (not the exponential fitted to the averaged normalized amplitudes). The numerical values of apparent affinity, onset and offset time constants and reversibility are shown in Table 2, and their relative position is illustrated in Figure 2. Affinity and time constant values were logarithmically transformed for statistics, therefore we show their geometric mean. For recovery data no transformation was done, and we show arithmetic mean values. Significance values were calculated using paired, two-tailed Student's t-test based on five pairs of apparent affinity (log transform), time constant (log transform), or reversibility values obtained from five individual experiments. Because of the large number of comparisons in this study, we accepted p < 0.01 as significant. Cluster analysis was done using Ward's minimum variance method, with Euclidean distance measure. Data were normalized by subtracting the mean (after logarithmic transformation in the case of apparent affinity and time constants), and dividing by the standard deviation.",
  "key": {"[1]": {"conditions": "pH 6.0, concentration (lidocaine 300 μM, memantine 30 μM)"}, "[2]": {"conditions": "pH 6.0, single concentration (lidocaine 300 μM, memantine 30 μM), geometric mean of 5, read-out: apparent affinity"}, "[3]": {"conditions": "pH 7.3, concentration (lidocaine 300 μM, memantine 30 μM)"}, "[4]": {"conditions": "pH 7.3, single concentration (lidocaine 300 μM, memantine 30 μM), geometric mean of 5, read-out: apparent affinity"}, "[5]": {"conditions": "pH 8.6, concentration (lidocaine 300 μM, memantine 30 μM)"}, "[6]": {"conditions": "pH 8.6, single concentration (lidocaine 300 μM, memantine 30 μM), geometric mean of 5, read-out: apparent affinity"}, "[7]": {"conditions": "pH=6.0, cc 300 mM, read-out: Apparent Affinity"}, "[8]": {"conditions": "pH=7.3, cc 300 mM, read-out: Apparent Affinity"}, "[9]": {"conditions": "pH=8.6, cc 300 mM, read-out: Apparent Affinity"}},
  "note": "Read-outs that look alike come from different tables or passages of the source.",
  "data": [
    {"smiles": "Nc1nnc(-c2cccc(Cl)c2Cl)c(N)n1", "note": "[lamotrigine]", "values": [
      {"measurement": "class of pH-dependence pattern (cluster analysis)", "result": "Class A"},
      {"measurement": "Ratio Reversibility", "setting": "pH 6.0/7.3, cc 300 mM", "result": 0.765},
      {"measurement": "Ratio Tau Offset", "setting": "pH 6.0/7.3, cc 300 mM", "result": 1.075},
      {"measurement": "Ratio Tau Onset", "setting": "pH 6.0/7.3, cc 300 mM", "result": 0.877},
      {"measurement": "log Ratio App Aff", "setting": "pH 6.0/7.3, cc 300 mM", "result": -0.277},
      {"measurement": "Ratio Reversibility", "setting": "pH 6.0/8.6, cc 300 mM", "result": 0.930},
      {"measurement": "Ratio Tau Offset", "setting": "pH 6.0/8.6, cc 300 mM", "result": 0.809},
      {"measurement": "Ratio Tau Onset", "setting": "pH 6.0/8.6, cc 300 mM", "result": 0.713},
      {"measurement": "log Ratio App Aff", "setting": "pH 6.0/8.6, cc 300 mM", "result": -0.398},
      {"measurement": "τoffset", "setting": "[1]", "result": 14.40, "unit": "s"},
      {"measurement": "τonset", "setting": "[1]", "result": 11.40, "unit": "s"},
      {"measurement": "Kd", "setting": "[2]", "result": 329, "unit": "µM"},
      {"measurement": "Ratio Reversibility", "setting": "pH 7.3/8.6, cc 300 mM", "result": 1.215},
      {"measurement": "Ratio Tau Offset", "setting": "pH 7.3/8.6, cc 300 mM", "result": 0.753},
      {"measurement": "Ratio Tau Onset", "setting": "pH 7.3/8.6, cc 300 mM", "result": 0.813},
      {"measurement": "log Ratio App Aff", "setting": "pH 7.3/8.6, cc 300 mM", "result": -0.121},
      {"measurement": "τoffset", "setting": "[3]", "result": 13.40, "unit": "s"},
      {"measurement": "τonset", "setting": "[3]", "result": 13.00, "unit": "s"},
      {"measurement": "Kd", "setting": "[4]", "result": 622, "unit": "µM"},
      {"measurement": "τoffset", "setting": "[5]", "result": 17.80, "unit": "s"},
      {"measurement": "τonset", "setting": "[5]", "result": 16.00, "unit": "s"},
      {"measurement": "Kd", "setting": "[6]", "result": 821, "unit": "µM"},
      {"measurement": "Reversibility", "setting": "pH=6.0, cc 300 mM", "result": 0.74},
      {"measurement": "Kd", "setting": "[7]", "result": 329, "unit": "µM"},
      {"measurement": "Reversibility", "setting": "pH=7.3, cc 300 mM", "result": 0.96},
      {"measurement": "Kd", "setting": "[8]", "result": 622, "unit": "µM"},
      {"measurement": "Reversibility", "setting": "pH=8.6, cc 300 mM", "result": 0.79},
      {"measurement": "Kd", "setting": "[9]", "result": 821, "unit": "µM"}
    ]},
    {"smiles": "CCN(CC)CC(=O)Nc1c(C)cccc1C", "note": "[lidocaine]", "values": [
      {"measurement": "class of pH-dependence pattern (cluster analysis)", "result": "Class A"},
      {"measurement": "τoffset", "setting": "[1]", "result": 8.49, "unit": "s"},
      {"measurement": "τonset", "setting": "[1]", "result": 6.17, "unit": "s"},
      {"measurement": "τonset", "setting": "pH 6.0, higher concentration: lidocaine 1000 μM, memantine 100 μM", "result": 5.20, "unit": "s"},
      {"measurement": "Kd", "setting": "pH 6.0, higher concentration: lidocaine 1000 μM, memantine 100 μM, read-out: apparent affinity", "result": 1670, "unit": "µM"},
      {"measurement": "Kd", "setting": "[2]", "result": 917, "unit": "µM"},
      {"measurement": "τoffset", "setting": "[3]", "result": 7.59, "unit": "s"},
      {"measurement": "τonset", "setting": "[3]", "result": 5.14, "unit": "s"},
      {"measurement": "τonset", "setting": "pH 7.3, higher concentration: lidocaine 1000 μM, memantine 100 μM", "result": 5.20, "unit": "s"},
      {"measurement": "Kd", "setting": "pH 7.3, higher concentration: lidocaine 1000 μM, memantine 100 μM, read-out: apparent affinity", "result": 1030, "unit": "µM"},
      {"measurement": "Kd", "setting": "[4]", "result": 806, "unit": "µM"},
      {"measurement": "τoffset", "setting": "[5]", "result": 5.98, "unit": "s"},
      {"measurement": "τonset", "setting": "[5]", "result": 4.86, "unit": "s"},
      {"measurement": "τonset", "setting": "pH 8.6, higher concentration: lidocaine 1000 μM, memantine 100 μM", "result": 5.60, "unit": "s"},
      {"measurement": "Kd", "setting": "pH 8.6, higher concentration: lidocaine 1000 μM, memantine 100 μM, read-out: apparent affinity", "result": 677, "unit": "µM"},
      {"measurement": "Kd", "setting": "[6]", "result": 515, "unit": "µM"},
      {"measurement": "Reversibility", "setting": "pH=6.0, cc 300 mM", "result": 0.66},
      {"measurement": "Kd", "setting": "[7]", "result": 917, "unit": "µM"},
      {"measurement": "Kd", "setting": "pH=6.0, cc 1000 mM, read-out: Apparent Affinity", "result": 1670, "unit": "µM"},
      {"measurement": "Kd", "setting": "[8]", "result": 806, "unit": "µM"},
      {"measurement": "Kd", "setting": "pH=7.3, cc 1000 mM, read-out: Apparent Affinity", "result": 1030, "unit": "µM"},
      {"measurement": "Kd", "setting": "[9]", "result": 515, "unit": "µM"},
      {"measurement": "Kd", "setting": "pH=8.6, cc 1000 mM, read-out: Apparent Affinity", "result": 677, "unit": "µM"}
    ]}
  ]
}
